Structures are written as SMILES.

By inhibition is commonly meant the drop in the measured response relative to a control, in per cent.

The target in assay [1] is T1, human recombinant serotonin (5-Hydroxytryptamine) 5-HT5A receptor (Homo sapiens, UniProt P47898).
T1 construct: expressed in transfected cells; host or cells: CHO-K1
The experiment in a line: Serotonin 5-HT5A radioligand binding ([3H]LSD). Particulars: compound at 0.1 μM; read-out: Inhibition of ligand binding, Serotonin 5-HT5A (percent inhibition of specific binding). As for the experimental part:
Compounds of the invention were incubated with 1.7 nM [^3H]Lysergic acid diethylamide (LSD) for 60 min at 37° C. […] Receptor proteins were filtered and washed, the filters were counted to determine [^3H]LSD specifically bound.

The target of assay [2] is T2, human recombinant serotonin (5-Hydroxytryptamine) 5-HT2A receptor (Homo sapiens, UniProt P28223).
T2 construct: expressed in transfected cells; host or cells: CHO-K1
T2 sequence (P28223 whole entry): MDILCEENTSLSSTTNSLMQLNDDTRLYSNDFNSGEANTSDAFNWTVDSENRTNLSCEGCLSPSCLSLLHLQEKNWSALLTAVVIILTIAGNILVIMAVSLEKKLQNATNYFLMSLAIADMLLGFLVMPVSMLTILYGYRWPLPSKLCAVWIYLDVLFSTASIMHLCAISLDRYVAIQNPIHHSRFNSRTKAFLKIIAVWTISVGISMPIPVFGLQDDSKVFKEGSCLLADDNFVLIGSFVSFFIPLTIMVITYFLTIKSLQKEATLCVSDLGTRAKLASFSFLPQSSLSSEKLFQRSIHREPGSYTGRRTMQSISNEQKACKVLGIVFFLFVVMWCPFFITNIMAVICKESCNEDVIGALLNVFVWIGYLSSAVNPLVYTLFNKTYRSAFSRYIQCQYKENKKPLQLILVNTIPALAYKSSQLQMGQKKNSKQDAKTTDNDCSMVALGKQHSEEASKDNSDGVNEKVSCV
The assay can be described thus: Serotonin 5-HT2A radioligand binding ([3H]Ketanserin). Particulars: compound at 0.1 μM; read-out: Inhibition of ligand binding, Serotonin 5-HT2A (percent inhibition of specific binding). As for the experimental part: Compounds of the invention were incubated with 0.5 nM [^3H]Ketanserin for 60 min at 25° C. Non-specific binding was estimated in the presence of 1 μM Mianserin. Receptor proteins were filtered and washed, the filters were then counted to determine [^3H]Ketanserin specifically bound.

For assay [3], the target named is T3, human recombinant serotonin (5-Hydroxytryptamine) 5-HT6 receptor (Homo sapiens, UniProt P50406).
T3 construct: expressed in transfected cells; host or cells: HeLa
T3 sequence (P50406 whole entry): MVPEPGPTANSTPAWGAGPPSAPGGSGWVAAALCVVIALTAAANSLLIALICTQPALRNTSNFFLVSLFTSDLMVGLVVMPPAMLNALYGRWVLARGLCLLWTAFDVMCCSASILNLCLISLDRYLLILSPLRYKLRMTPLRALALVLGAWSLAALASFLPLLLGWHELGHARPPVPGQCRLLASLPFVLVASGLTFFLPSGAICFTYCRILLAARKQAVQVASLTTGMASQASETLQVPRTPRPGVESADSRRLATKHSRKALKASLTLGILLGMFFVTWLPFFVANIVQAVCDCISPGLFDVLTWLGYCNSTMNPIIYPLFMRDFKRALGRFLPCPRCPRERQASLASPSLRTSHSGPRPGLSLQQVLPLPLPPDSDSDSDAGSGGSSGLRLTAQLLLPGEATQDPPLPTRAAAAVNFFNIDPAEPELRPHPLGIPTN
The assay can be described thus: Serotonin 5-HT6 radioligand binding ([3H]LSD). Particulars: compound at 0.1 μM; read-out: Inhibition of ligand binding, Serotonin 5-HT6 (percent inhibition of specific binding). The text has this:
Receptor proteins were filtered and washed, the filters were then counted to determine [3H]LSD specifically bound.

For assay [4], the target named is T4, human recombinant serotonin (5-Hydroxytryptamine) 5-HT2C receptor (Homo sapiens, UniProt P28335).
T4 construct: expressed in transfected cells; host or cells: CHO-K1
T4 sequence (P28335 33-458): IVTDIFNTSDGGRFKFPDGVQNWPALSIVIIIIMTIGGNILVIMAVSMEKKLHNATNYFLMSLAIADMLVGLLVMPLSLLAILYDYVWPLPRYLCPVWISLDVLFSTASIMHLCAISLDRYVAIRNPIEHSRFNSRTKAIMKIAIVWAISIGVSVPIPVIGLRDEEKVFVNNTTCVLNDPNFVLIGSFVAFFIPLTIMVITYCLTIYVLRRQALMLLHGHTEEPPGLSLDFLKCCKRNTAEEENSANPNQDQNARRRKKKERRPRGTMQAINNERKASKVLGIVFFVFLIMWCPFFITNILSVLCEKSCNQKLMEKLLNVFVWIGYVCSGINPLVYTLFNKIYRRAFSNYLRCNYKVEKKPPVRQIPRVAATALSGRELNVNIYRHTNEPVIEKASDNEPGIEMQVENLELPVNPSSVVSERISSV
The assay can be described thus: Serotonin 5-HT2C radioligand binding ([3H]Mesulergine). Particulars: compound at 0.1 μM; read-out: Inhibition of ligand binding, Serotonin 5-HT2C (percent inhibition of specific binding). The method, then:
Compounds of the invention were incubated with 1 nM [^3H]Mesulergine for 60 min at 25° C. Non-specific binding was estimated in the presence of 1 μM Mianserin. Receptor proteins were filtered and washed, the filters were then counted to determine [^3H]Mesulergine specifically bound.

Assay [5] addresses T5, rat adrenergic α1A receptor (Rattus norvegicus, UniProt P43140).
T5 construct: rat adrenergic α1A receptor obtained from Wistar Rat submaxillary glands; from tissue; host or cells: Wistar rat submaxillary glands
T5 sequence (P43140 1-466): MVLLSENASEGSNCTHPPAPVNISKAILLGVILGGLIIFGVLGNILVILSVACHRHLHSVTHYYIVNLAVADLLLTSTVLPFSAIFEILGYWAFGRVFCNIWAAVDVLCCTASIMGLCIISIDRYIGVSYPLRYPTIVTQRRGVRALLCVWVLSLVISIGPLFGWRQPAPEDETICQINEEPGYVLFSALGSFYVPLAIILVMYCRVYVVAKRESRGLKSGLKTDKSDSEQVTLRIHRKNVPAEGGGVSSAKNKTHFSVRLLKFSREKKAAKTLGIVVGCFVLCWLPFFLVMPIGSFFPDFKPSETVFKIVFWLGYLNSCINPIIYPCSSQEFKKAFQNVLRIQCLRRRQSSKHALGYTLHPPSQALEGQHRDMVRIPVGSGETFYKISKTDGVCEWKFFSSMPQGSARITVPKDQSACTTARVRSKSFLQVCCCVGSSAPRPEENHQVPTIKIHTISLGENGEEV
The assay can be described thus: Adrenergic α1A radioligand binding ([3H]Prazosin). Particulars: read-out: Adrenergic (0.1 μM) a1A, percent inhibition of specific binding; compound at 0.1 μM; 0.25 nM [3H]Prazosin. Summed up:
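Wistar rat submaxillary gland receptor in 50 mM Tris-HCl pH 7.4 with 0.5 mM EDTA, incubated with compound and 0.25 nM [3H]Prazosin for 60 min at 25 °C.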

Assay [6] addresses T6, human recombinant histamine H1 receptor (Homo sapiens, UniProt P35367).
T6 construct: expressed in transfected cells; host or cells: CHO-K1
The assay can be described thus: Histamine H1 radioligand binding ([3H]Pyrilamine). Particulars: read-out: Histamine H1 Binding (1 μM), percent inhibition of specific binding; compound at 1 μM; 1.2 nM [3H]Pyrilamine. Summed up:
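Human recombinant H1 receptor expressed in CHO-K1 cells, in 50 mM Tris-HCl pH 7.4 with 2 mM MgCl2, 100 mM NaCl, 250 mM sucrose. Non-specific binding defined with 1 μM pyrilamine; bound [3H]pyrilamine counted after filtration and washing. Values are percent inhibition of specific binding.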

T6 sequence (P35367 whole entry): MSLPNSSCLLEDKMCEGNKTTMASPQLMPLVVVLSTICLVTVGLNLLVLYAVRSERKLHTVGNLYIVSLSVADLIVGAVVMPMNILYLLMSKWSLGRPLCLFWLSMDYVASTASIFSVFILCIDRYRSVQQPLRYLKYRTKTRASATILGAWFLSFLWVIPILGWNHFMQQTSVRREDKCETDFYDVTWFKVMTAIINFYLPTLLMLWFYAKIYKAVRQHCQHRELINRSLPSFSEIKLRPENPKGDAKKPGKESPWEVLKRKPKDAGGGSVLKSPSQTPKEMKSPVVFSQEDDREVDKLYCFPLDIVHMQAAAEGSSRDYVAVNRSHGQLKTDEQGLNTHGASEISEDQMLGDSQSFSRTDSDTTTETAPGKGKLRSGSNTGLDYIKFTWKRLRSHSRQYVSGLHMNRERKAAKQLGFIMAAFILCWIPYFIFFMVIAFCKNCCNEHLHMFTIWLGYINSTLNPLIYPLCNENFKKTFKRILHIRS
T1 sequence (P47898 whole entry): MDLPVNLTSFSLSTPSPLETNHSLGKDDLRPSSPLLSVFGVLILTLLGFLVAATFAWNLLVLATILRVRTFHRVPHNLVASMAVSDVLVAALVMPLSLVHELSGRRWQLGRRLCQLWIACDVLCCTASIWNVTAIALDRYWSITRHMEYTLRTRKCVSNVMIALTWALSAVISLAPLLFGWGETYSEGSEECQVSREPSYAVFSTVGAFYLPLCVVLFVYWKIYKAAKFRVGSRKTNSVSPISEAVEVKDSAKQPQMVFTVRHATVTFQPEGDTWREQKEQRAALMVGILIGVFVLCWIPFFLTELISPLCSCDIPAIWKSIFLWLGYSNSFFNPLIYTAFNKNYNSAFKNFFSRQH

`Cc1ccc2c(c1)c1c(n2-c2cccc3ccncc23)CCN(C)C1` [Compound 58, 5-(isoquinolin-8-yl)-2,8-dimethyl-2,3,4,5-tetrahydro-1H-pyrido[4,3-b]indole]: the inhibition at 0.1 µM came out at 33% in assay [1]; 70% in assay [2]; 21% in assay [3]; 81% in assay [4]; 3% in assay [5]. In assay [6], the inhibition at 1 µM came out at 31%.
Consider `Cc1ccc2c(c1)c1c(n2-c2cccc(-c3ccc(C)nc3)c2)CCN(C)C1` [Compound 60, 2,8-dimethyl-5-(3-(6-methylpyridin-3-yl)phenyl)-2,3,4,5-tetrahydro-1H-pyrido[4,3-b]indole], for which the inhibition at 0.1 µM in assay [1] is 62%; in assay [2] it was 102%; in assay [3] it was 3%; in assay [4] it was 53%; in assay [5], -2%. In addition, the inhibition at 1 µM in assay [6] came out at 32%.
In the case of `Cc1ccc2c(c1)c1c(n2-c2cccc(-c3ccc(F)cc3)c2)CCN(C)C1` [Compound 61, 5-(4′-fluorobiphenyl-3-yl)-2,8-dimethyl-2,3,4,5-tetrahydro-1H-pyrido[4,3-b]indole], the inhibition at 0.1 µM in assay [1] is 24%; in assay [2], 102%; in assay [3], 18%; in assay [4], 81%; in assay [5] it was -5%. The inhibition at 1 µM in assay [6] stood at 42%.
Regarding `Cc1csc(-c2ccc(-n3c4c(c5cc(C)ccc53)CN(C)CC4)nc2)c1` [Compound No. 144, 2,8-dimethyl-5-(5-(4-methylthiophen-2-yl)pyridin-2-yl)-2,3,4,5-tetrahydro-1H-pyrido[4,3-b]indole], the inhibition at 0.1 µM in assay [1] was 38%; in assay [2], 103%; in assay [3], 13%; in assay [4] it was 100%; in assay [5], 27%. For the same molecule, the inhibition at 1 µM in assay [6] turned out to be 11%.
On to `Cc1ccc2c(c1)c1c(n2-c2ccccc2-c2ccnn2C)CCN(C)C1` [Compound 32], for which the inhibition at 0.1 µM in assay [1] was found to be 26%; in assay [2], 59%; in assay [3], 5%; in assay [4], 50%; in assay [5] it was 27%. In assay [6], the inhibition at 1 µM worked out at 22%.
For the molecule `Cc1csc(-c2ccccc2-n2c3c(c4cc(C)ccc42)CN(C)CC3)c1` [Compound 36], the inhibition at 0.1 µM in assay [1] is 50%; in assay [2], 80%; in assay [3], 13%; in assay [4], 83%; in assay [5], -6%. The inhibition at 1 µM in assay [6] came out at 16%.
`CNC(=O)c1cc(-n2c3c(c4cc(C)ccc42)CN(C)CC3)cs1` [Compound No. 78]: the inhibition at 0.1 µM was 24% in assay [1]; 59% in assay [2]; 17% in assay [3]; 35% in assay [4]; 16% in assay [5]. In addition, the inhibition at 1 µM in assay [6] is 13%.
Turning to `Cc1ccc2c(c1)c1c(n2-c2cscc2-c2cncc3ccccc23)CCN(C)C1` [Compound 34], the inhibition at 0.1 µM in assay [1] worked out at 56%; in assay [2], 57%; in assay [3] it was 11%; in assay [4] it was 54%; in assay [5], 4%. Moreover, in assay [6], the inhibition at 1 µM amounted to 6%.
For the molecule `Cc1ccc2c(c1)c1c(n2-c2ccc3nc(C)ccc3c2)CCN(C)C1` [Compound No. 157, 2,8-dimethyl-5-(2-methyl-quinolin-6-yl)-2,3,4,5-tetrahydro-1H-pyrido[4,3-b]indole], the inhibition at 0.1 µM was determined as 20% in assay [1]; 88% in assay [2]; 22% in assay [3]; 88% in assay [4]; 7% in assay [5]. In addition, the inhibition at 1 µM in assay [6] is -17%.
With `Cc1ccc2c(c1)c1c(n2-c2cccc(-c3ccc(O)nc3)c2)CCN(C)C1` [Compound 52, 5-(3-(2,8-dimethyl-3,4-dihydro-1H-pyrido[4,3-b]indol-5(2H)-yl)phenyl)pyridin-2-ol], the inhibition at 0.1 µM in assay [1] was 55%; in assay [2], 76%; in assay [3], 17%; in assay [4] it was 19%; in assay [5], -1%. Also, the inhibition at 1 µM in assay [6] amounted to 14%.
`Cc1cc(C)c2c(c1)c1c(n2-c2ccc3ncccc3c2)CCN(C)C1` [Compound 48]: the inhibition at 0.1 µM in assay [1] was 10%; in assay [2], 13%; in assay [3], 20%; in assay [4], 47%; in assay [5], -6%. In addition, in assay [6], the inhibition at 1 µM is 4%.
Take `Cc1ccc2c(c1)c1c(n2-c2ccc(-c3c(C)noc3C)cn2)CCN(C)C1` [Compound No. 137, 4-(6-(2,8-dimethyl-3,4-dihydro-1H-pyrido[4,3-b]indol-5(2H)-yl)pyridin-3-yl)-3,5-dimethylisoxazole]: the inhibition at 0.1 µM in assay [1] was determined as 31%; in assay [2] it was 62%; in assay [3], 2%; in assay [4], 75%; in assay [5], 17%. Also, in assay [6], the inhibition at 1 µM was found to be 3%.
As to `CNC(=O)c1ccc(-c2ccccc2-n2c3c(c4cc(C)ccc42)CN(C)CC3)cc1` [Compound No. 72, 2′-(2,8-dimethyl-3,4-dihydro-1H-pyrido[4,3-b]indol-5(2H)-yl)-N-methylbiphenyl-4-carboxamide], the inhibition at 0.1 µM in assay [1] was found to be 14%; in assay [2] it was 35%; in assay [3], 3%; in assay [4], 16%; in assay [5], 36%. Further, in assay [6], the inhibition at 1 µM stood at 18%.
In the case of `Cc1ccc2c(c1)c1c(n2-c2cscc2-c2cnc(N(C)C)nc2)CCN(C)C1` [Compound 40], the inhibition at 0.1 µM in assay [1] came to 76%; in assay [2] it was 31%; in assay [3] it was 19%; in assay [4], 35%; in assay [5], 43%. The inhibition at 1 µM in assay [6] amounted to 15%.
On to `CC(=O)Nc1ccc(-c2ccccc2-n2c3c(c4cc(C)ccc42)CN(C)CC3)cn1` [Compound No. 83, N-(5-(2-(2,8-dimethyl-3,4-dihydro-1H-pyrido[4,3-b]indol-5(2H)-yl)phenyl)pyridin-2-yl)acetamide], for which the inhibition at 0.1 µM is 11% in assay [1]; 41% in assay [2]; 3% in assay [3]; 15% in assay [4]; 23% in assay [5]. In assay [6], the inhibition at 1 µM came out at 22%.

These data come from US9187471B2, “Pyrido [4,3-b] indole and pyrido [3,4-b] indole derivatives and methods of use” (Medivation Technologies, Inc., priority 2010, dated 2015).
